The results in this text go back to patent US20130310384A1, “Sulfonamide-Containing Compounds” (THE BRIGHAM AND WOMEN'S HOSPITAL, INC., priority 2010, published 2013).

SMILES strings stand for the structures.

The compound `O=C(O)c1ccc(CN([C@H](CO)c2ccccc2)S(=O)(=O)c2ccc(Cl)cc2)cc1` (hydrate or solvate) [Example 95, (S)-4-((4-Chloro-N-(2-hydroxy-1-phenylethyl)phenylsulfonamido)methyl)benzoic acid] showed a melting point of 86 to 88 °C. The figure for `CC[C@@H](c1ccccc1)N(Cc1ccc(S(C)(=O)=O)cc1)S(=O)(=O)c1ccc(Cl)cc1` [Example 2, (S)-4-Chloro-N-(4-(methylsulfonyl)benzyl)-N-(1phenylpropyl)benzenesulfonamide] is 61 to 63 °C. Under `CC[C@@H](c1ccccc1)N(Cc1ccc(C(=O)OC)cc1)S(=O)(=O)c1ccc(Cl)cc1` [Example 3, (S)-Methyl 4-((4-chloro-N-(1-phenylpropyl)phenylsulfonamido)methyl)benzoate] stands 108 to 110 °C. Under `COC(=O)c1ccc(CN([C@@H](CO)c2ccccc2)S(=O)(=O)c2ccc(Cl)cc2)cc1` [Example 7, (R)-Methyl 4-((4-chloro-N-(2-hydroxy-1-phenylethyl)phenylsulfonamido)methyl)benzoate] stands 104 to 106 °C; under `COC(=O)c1ccc(CN([C@@H](C)c2ccccc2)S(=O)(=O)c2ccc(Cl)cc2)cc1` [Example 12, (S)-Methyl 4-((4-chloro-N-(1-phenylethyl)phenylsulfonamido)methyl)benzoate], 105 to 106 °C; under `CC[C@@H](c1ccccc1)N(Cc1ccc(C(=O)OC)cc1)S(=O)(=O)c1ccc(C(F)(F)F)cc1` [Example 18, (S)-Methyl 4-((N-(1-phenylpropyl)-4-(trifluoromethyl)phenylsulfonamido)methyl)benzoate], 70 to 72 °C. `CC[C@@H](c1ccccc1)N(Cc1ccc(C(=O)OC)cc1)S(=O)(=O)c1ccc(F)cc1` [Example 21, (S)-Methyl 4-((4-fluoro-N-(1-phenylpropyl)phenylsulfonamido)methyl)benzoate] showed a melting point of 107 to 109 °C. Turning to `CC[C@@H](c1ccccc1)N(Cc1ccc(C(=O)O)cc1OC)S(=O)(=O)c1ccc(Cl)cc1` [Example 23, (S)-4-((4-Chloro-N-(1-phenylpropyl)phenylsulfonamido)methyl)-3-methoxybenzoic acid], the melting point was 176 to 178 °C. The compound `CCC(c1ccccc1)N(Cc1ccc(C(=O)OC)cc1)S(=O)(=O)c1ccc(Cl)cc1` (centres unmarked) [Example 25, Methyl 4-((4-chloro-N-(1-phenylpropyl)phenylsulfonamido)methyl)benzoate] displayed a melting point of 105 to 107 °C. The figure for `CCC(c1ccccn1)N(Cc1ccc(C(=O)OC)cc1)S(=O)(=O)c1ccc(F)cc1` (centres unmarked) [Example 26, Methyl 4-((4-fluoro-N-(1-(pyridin-2-yl)propyl)phenylsulfonamido)methyl)benzoate] is 82 to 84 °C. Under `CCC(c1ccc(F)cc1)N(Cc1ccc(C(=O)OC)cc1)S(=O)(=O)c1ccc(Cl)cc1` (centres unmarked) [Example 30, Methyl 4-((4-chloro-N-(1-(4-fluorophenyl)propyl)phenylsulfonamido)methyl)benzoate] stands 95 to 97 °C; under `CCC(CC)N(Cc1ccc(S(C)(=O)=O)cc1)S(=O)(=O)c1ccc(Cl)cc1` [Example 31, 4-Chloro-N-(4-(methylsulfonyl)benzyl)-N-(pentan-3-yl)benzenesulfonamide], 166 to 168 °C. The figure for `CCC(CC)N(Cc1ccc(C(=O)OC)cc1)S(=O)(=O)c1ccc(F)cc1` [Example 32, Methyl 4-((4-fluoro-N-(pentan-3-yl)phenylsulfonamido)methyl)benzoate] is 78 to 80 °C; for `CCC(CC)N(Cc1ccc(C#N)cc1)S(=O)(=O)c1ccc(Cl)cc1` [Example 33, 4-Chloro-N-(4-cyanobenzyl)-N-(pentan-3-yl)benzenesulfonamide] it is 123 to 125 °C. Regarding `CCC(CC)N(Cc1ccc(C(=O)OC)cn1)S(=O)(=O)c1ccc(F)cc1` [Example 34, Methyl 6-((4-fluoro-N-(pentan-3-yl)phenylsulfonamido)methyl)nicotinate], the melting point fell in the range of 117 to 119 °C.

`CCC(CC)N(Cc1ccc(C(=O)OC)cc1)S(=O)(=O)c1ccc(C)cc1` [Example 35, Methyl 4-((4-methyl-N-(pentan-3-yl)phenylsulfonamido)methyl)benzoate] came in with a melting point of 106 to 108 °C.

The compound `CCC(CC)N(Cc1ccc(C#N)cc1F)S(=O)(=O)c1ccc(F)cc1` [Example 36, N-(4-Cyano-2-fluorobenzyl)-4-fluoro-N-(pentan-3-yl)benzenesulfonamide] registered a melting point of 102 to 104 °C.

Compound `CCC(CC)N(Cc1ccc(C(=O)O)cn1)S(=O)(=O)c1ccc(F)cc1` [Example 37, 6-((4-Fluoro-N-(pentan-3-yl)phenylsulfonamido)methyl)nicotinic acid] had a melting point of 145 to 147 °C. Under `CCC(CC)N(Cc1ccc(C(=O)OC)cc1)S(=O)(=O)c1ccc(Cl)cc1` [Example 40, Methyl 4-((4-chloro-N-(pentan-3-yl)phenylsulfonamido)methyl)benzoate] stands 95 to 97 °C; under `COC(=O)c1ccc(CN(C(CF)CF)S(=O)(=O)c2ccc(F)cc2)cc1` [Example 41], 103 to 105 °C. The figure for `COC(=O)c1ccc(CN(C(CO)CO)S(=O)(=O)c2ccc(Cl)s2)cc1` [Example 42, Methyl 4-((5-chloro-N-(1,3-dihydroxypropan-2-yl)thiophene-2-sulfonamido)methyl)benzoate] is 134 to 135 °C. Under `CC(C)N(Cc1ccc(Cl)c(Cl)c1)S(=O)(=O)c1ccc(Cl)s1` [Example 43, 5-Chloro-N-(3,4-dichlorobenzyl)-N-isopropylthiophene-2-sulfonamide] stands 66 to 67 °C; under `COC(=O)c1ccc(CN(C(C)C)S(=O)(=O)c2ccc(Cl)cc2)cc1` [Example 44, Methyl 4-((4-chloro-N-isopropylphenylsulfonamido)methyl)benzoate], 110 to 112 °C; under `COC(=O)c1ccc(CN(C(C)C)S(=O)(=O)c2ccc(F)cc2)cc1` [Example 45, Methyl 4-((4-fluoro-N-isopropylphenylsulfonamido)methyl)benzoate], 118 to 120 °C. On to `CC(C)N(Cc1ccc(Cl)c(Cl)c1)S(=O)(=O)c1cc2ccccc2s1` [Example 48, N-(3,4-Dichlorobenzyl)-N-isopropylbenzo[b]thiophene-2-sulfonamide], for which the melting point is 133 to 135 °C.

Turning to `O=C(O)c1ccc(CN([C@@H](CO)c2ccccc2)S(=O)(=O)c2ccc(Cl)cc2)cc1` [Example 51, (R)-4-((4-Chloro-N-(2-hydroxy-1-phenylethyl)phenylsulfonamido)methyl)benzoic acid], the melting point was 85 to 87 °C.

Take `CC[C@@H](c1ccccc1)N(Cc1ccc(C(=O)O)cc1F)S(=O)(=O)c1ccc(Cl)cc1` [Example 52, (S)-4-((4-Chloro-N-(1-phenylpropyl)phenylsulfonamido)methyl)-3-fluorobenzoic acid]: the melting point lay in the range of 118 to 120 °C.

`O=C(O)c1ccc(CN(C(CO)CO)S(=O)(=O)c2ccc(Cl)s2)cc1` [Example 53, 4-((5-Chloro-N-(1,3-dihydroxypropan-2-yl)thiophene-2-sulfonamido)methyl)benzoic acid] displayed a melting point of 163 to 165 °C. Under `CCC(c1ccc(C(F)(F)F)cc1)N(Cc1ccc(C(=O)O)cc1)S(=O)(=O)c1ccc(Cl)cc1` (centres unmarked) [Example 54, 4-((4-Chloro-N-(1-(4-(trifluoromethyl)phenyl)propyl)phenylsulfonamido)methyl)benzoic acid] stands 108 to 110 °C. Under `CC[C@@H](c1ccccc1)N(Cc1cccc(C(=O)O)c1)S(=O)(=O)c1ccc(Cl)cc1` [Example 59, (S)-3-((4-Chloro-N-(1-phenylpropyl)phenylsulfonamido)methyl)benzoic acid] stands 65 to 67 °C.

Regarding `CC[C@@H](c1ccccc1)N(Cc1ccc(C(=O)NCC(=O)O)cc1)S(=O)(=O)c1ccc(Cl)cc1` [Example 64, (S)-2-(4-((4-Chloro-N-(1-phenylpropyl)phenylsulfonamido)methyl)benzamido)acetic acid], the melting point lay in the range of 136 to 139 °C.

`CCC(CC)N(Cc1ccc(C#N)nc1)S(=O)(=O)c1ccc(Cl)cc1` [Example 72] came in with a melting point of 108 to 110 °C.

In turn, `CCC(CC)N(Cc1ccc(C#N)nc1)S(=O)(=O)c1ccc(F)cc1` [Example 73, N-((6-Cyanopyridin-3-yl)methyl)-4-fluoro-N-(pentan-3-yl)benzenesulfonamide] gave a melting point of 118 to 120 °C. The figure for `CC[C@@H](c1ccccc1)N(Cc1ccc(C(=O)NC[C@H](C)O)cc1)S(=O)(=O)c1ccc(Cl)cc1` [Example 80, 4-((4-Chloro-N—((S)-1-phenylpropyl)phenylsulfonamido)methyl)-N-((S)-2-hydroxypropyl)benzamide] is 78 to 80 °C. The compound `CC[C@@H](c1ccc(C#N)cc1)N(Cc1ccc(C#N)cc1)S(=O)(=O)c1ccc(Cl)cc1` [Example 84, (S)-4-Chloro-N-(4-cyanobenzyl)-N-(1-(4-cyanophenyl)propyl)benzenesulfonamide] showed a melting point of 120 to 121 °C. Under `CCC(c1ccc(Cl)nc1)N(Cc1ccc(C(=O)O)cc1)S(=O)(=O)c1ccc(Cl)cc1` (centres unmarked) [Example 89, 4-((4-Chloro-N-(1-(6-chloropyridin-3-yl)propyl)phenylsulfonamido)methyl)benzoic acid] stands 111 to 113 °C. Under `COC(=O)c1ccc(CN([C@@H](CO)Cc2ccccc2)S(=O)(=O)c2ccc(Cl)cc2)cc1` [Example 94, (R)-Methyl 4-((4-chloro-N-(1-hydroxy-3-phenylpropan-2-yl)phenylsulfonamido)-methyl)benzoate] stands 128 to 130 °C; under `CC[C@@H](c1ccc(C#N)cc1)N(Cc1ccc(C(=O)O)cc1)S(=O)(=O)c1ccc(Cl)cc1` [Example 103, (S)-4-((4-Chloro-N-(1-(4-cyanophenyl)propyl)phenylsulfonamido)methyl)benzoic acid], 132 to 133 °C.
